Reference: US20250296934A1, “AZEPINOINDOLES AND METHODS OF PREPARATION THEREOF” (priority 2022, published 2025)
Read-outs that look alike come from different tables or passages of the source.

How the values were obtained:
5-HT2B = 5-HT2B (Homo sapiens, UniProt P41595); experiment: 5-HT2B Gq dissociation BRET functional assay; type: cell-based; parameters: expressed in transfected cells; host or cells: HEK293T
5-HT1F = molecular target: T1, 5-HT1F (Homo sapiens, UniProt P30939); experiment: 5-HT receptor activity (Table 3), 5-HT1F; type: cell-based
T1 sequence (P30939 1-366): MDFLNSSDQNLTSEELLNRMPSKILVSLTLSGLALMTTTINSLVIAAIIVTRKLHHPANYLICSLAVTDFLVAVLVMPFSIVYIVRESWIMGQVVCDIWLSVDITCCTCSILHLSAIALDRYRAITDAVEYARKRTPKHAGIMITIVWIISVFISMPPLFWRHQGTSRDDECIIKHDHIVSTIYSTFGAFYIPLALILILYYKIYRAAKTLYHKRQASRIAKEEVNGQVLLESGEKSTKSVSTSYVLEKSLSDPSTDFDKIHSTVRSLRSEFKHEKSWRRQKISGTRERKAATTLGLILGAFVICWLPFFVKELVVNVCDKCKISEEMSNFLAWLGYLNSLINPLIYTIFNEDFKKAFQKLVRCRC

Plasma PK in dog = type: in vivo
From the text: (§1) Tables 7a and 7b summarize, among other things, the observed plasma PK properties in animals, for Compound 1: […]

hepatocyte [1] = experiment: In vitro hepatocyte clearance, rat; type: in vitro ADME; settings: Rat
Description: (§2) Additional experimentation was performed on compounds 1, W5, and A93. Table 6a, 6b and 6c summarize, among other things, the anticipated hepatic clearance of compounds 1, W5 and A93 respectively, in various species, as specified in Table 6a, 6b and 6c and as determined by calculating the in vitro hepatocyte clearance over time and scaling such rate with such species' hepatocyte count and the anticipated liver blood flow rate in such species.

[2] = In vitro hepatocyte clearance, rat; type: in vitro ADME
Description: as §2

Plasma PK in rat = type: in vivo
From the text: as §1

hepatocyte [3] = experiment: In vitro hepatocyte clearance, monkey; type: in vitro ADME; settings: Monkey
Description: as §2

[4] = In vitro hepatocyte clearance, monkey; type: in vitro ADME; settings: Monkey hepatocytes
Description: as §2

5-HT6 = 5-HT6 (Homo sapiens, UniProt P50406); experiment: 5-HT receptor activity (Table 3), 5-HT6; type: cell-based
hepatocyte [5] = experiment: In vitro hepatocyte clearance, dog; type: in vitro ADME; settings: Dog
Description: as §2

[6] = In vitro hepatocyte clearance, dog; type: in vitro ADME
Description: as §2

5-HT5A = 5-HT5A (Homo sapiens, UniProt P47898); experiment: 5-HT receptor activity (Table 3), 5-HT5A; type: cell-based
5-HT1B = 5-HT1B (Homo sapiens, UniProt P28222); experiment: 5-HT receptor activity (Table 3), 5-HT1B; type: cell-based
5-HT1B, sequence (P28222 whole entry, species assumed): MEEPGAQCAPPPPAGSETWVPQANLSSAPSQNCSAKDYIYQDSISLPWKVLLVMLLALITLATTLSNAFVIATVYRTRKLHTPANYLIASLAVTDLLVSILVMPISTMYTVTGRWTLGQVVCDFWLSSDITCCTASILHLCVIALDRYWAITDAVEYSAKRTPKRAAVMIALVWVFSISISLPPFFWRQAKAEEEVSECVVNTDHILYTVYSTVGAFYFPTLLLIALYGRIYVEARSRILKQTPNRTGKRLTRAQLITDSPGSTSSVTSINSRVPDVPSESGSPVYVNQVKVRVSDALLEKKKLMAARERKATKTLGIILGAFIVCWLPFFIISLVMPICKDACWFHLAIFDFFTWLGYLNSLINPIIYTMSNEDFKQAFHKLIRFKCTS

5-HT6, sequence (P50406 whole entry, species assumed): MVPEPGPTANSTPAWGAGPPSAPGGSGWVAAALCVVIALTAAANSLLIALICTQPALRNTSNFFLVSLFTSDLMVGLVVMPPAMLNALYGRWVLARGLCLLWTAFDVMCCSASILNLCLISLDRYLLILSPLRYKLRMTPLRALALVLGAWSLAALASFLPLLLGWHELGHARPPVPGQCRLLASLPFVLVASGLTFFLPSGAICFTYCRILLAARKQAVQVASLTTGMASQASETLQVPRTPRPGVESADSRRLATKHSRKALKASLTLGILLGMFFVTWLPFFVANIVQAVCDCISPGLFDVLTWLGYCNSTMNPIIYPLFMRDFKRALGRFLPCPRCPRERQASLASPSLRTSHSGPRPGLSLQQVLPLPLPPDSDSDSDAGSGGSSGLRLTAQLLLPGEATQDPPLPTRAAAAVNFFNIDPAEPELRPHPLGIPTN
5-HT2B, sequence (P41595 whole entry): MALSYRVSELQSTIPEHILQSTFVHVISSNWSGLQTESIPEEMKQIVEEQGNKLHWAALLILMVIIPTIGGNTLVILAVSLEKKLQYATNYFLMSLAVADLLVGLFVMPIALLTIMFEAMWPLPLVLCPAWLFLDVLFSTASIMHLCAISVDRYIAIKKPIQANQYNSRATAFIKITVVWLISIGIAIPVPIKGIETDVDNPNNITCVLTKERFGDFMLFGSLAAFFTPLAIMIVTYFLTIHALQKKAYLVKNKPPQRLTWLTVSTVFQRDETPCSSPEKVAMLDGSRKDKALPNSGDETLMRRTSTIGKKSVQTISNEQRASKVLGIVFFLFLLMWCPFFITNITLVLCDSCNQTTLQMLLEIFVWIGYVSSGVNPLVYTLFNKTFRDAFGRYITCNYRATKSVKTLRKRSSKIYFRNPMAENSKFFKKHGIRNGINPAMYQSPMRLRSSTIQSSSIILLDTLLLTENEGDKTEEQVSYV
5-HT5A, sequence (P47898 whole entry, species assumed): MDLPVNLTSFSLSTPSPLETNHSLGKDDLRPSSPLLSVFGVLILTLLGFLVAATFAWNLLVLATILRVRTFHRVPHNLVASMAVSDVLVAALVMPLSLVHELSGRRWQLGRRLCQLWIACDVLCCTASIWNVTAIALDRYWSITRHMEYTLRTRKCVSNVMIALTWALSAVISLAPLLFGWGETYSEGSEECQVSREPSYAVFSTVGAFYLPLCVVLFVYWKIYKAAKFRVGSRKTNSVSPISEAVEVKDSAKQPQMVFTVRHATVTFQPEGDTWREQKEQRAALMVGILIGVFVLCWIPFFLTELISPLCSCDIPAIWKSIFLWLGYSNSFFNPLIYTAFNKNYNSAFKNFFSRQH

## Cc1ccc(O)c2c3c([nH]c12)CCNCC3 [Cpd #1 (Pharm-136), 7-Methyl-1,2,3,4,5,6-hexahydroazepino[4,5-b]indol-10-ol]
5-HT2B
  EC50: 3.5 nM
5-HT2B; normalized to % 5-HT stimulation
  5-HT2B BRET Eff: 52%
TA1537; TA1537 + S9, 1.0E−04M
  Count (n. of wells): 0 n. of wells
  Significance: Negative
TA1537; TA1537 + S9, 1.0E−05M
  Count (n. of wells): 1 n. of wells
  Significance: Negative
TA1537; TA1537 + S9, 5.0E−05M
  Count (n. of wells): 0 n. of wells
  Significance: Negative
TA1537; TA1537 + S9, 5.0E−06M
  Count (n. of wells): 2 n. of wells
  Significance: Negative
TA1537; TA1537 − S9, 1.0E−04M
  Count (n. of wells): 0 n. of wells
  Significance: Negative
TA1537; TA1537 − S9, 1.0E−05M
  Count (n. of wells): 1 n. of wells
  Significance: Negative
TA1537; TA1537 − S9, 5.0E−05M
  Count (n. of wells): 0 n. of wells
  Significance: Negative
TA1537; TA1537 − S9, 5.0E−06M
  Count (n. of wells): 0 n. of wells
  Significance: Negative
5-HT1F
  EC50: 460 nM
  Eff: 56%
TA98; TA98 + S9, 1.0E−04M
  Count (n. of wells): 0 n. of wells
  Significance: Negative
TA98; TA98 + S9, 1.0E−05M
  Count (n. of wells): 3 n. of wells
  Significance: Negative
TA98; TA98 + S9, 5.0E−05M
  Count (n. of wells): 0 n. of wells
  Significance: Negative
TA98; TA98 + S9, 5.0E−06M
  Count (n. of wells): 9 n. of wells
  Significance: Weak positive
TA98; TA98 − S9, 1.0E−04M
  Count (n. of wells): 0 n. of wells
  Significance: Negative
TA98; TA98 − S9, 1.0E−05M
  Count (n. of wells): 0 n. of wells
  Significance: Negative
TA98; TA98 − S9, 5.0E−05M
  Count (n. of wells): 0 n. of wells
  Significance: Negative
TA98; TA98 − S9, 5.0E−06M
  Count (n. of wells): 1 n. of wells
  Significance: Negative
Plasma PK in dog; IV, 2 mg/kg
  AUC(0-t): 1200 ng·h/mL
  half-life: 2.84 h
Plasma PK in dog; IV, 2 mg/kg, read-out: Cltot (converted)
  clearance: 24.6 mL/min/kg
Plasma PK in dog; IV, 2 mg/kg, read-out: Vss
  Vd: 5.15 L/kg
Plasma PK in dog; PO, 10 mg/kg
  AUC(0-t): 5460 ng·h/mL
  Vz_F: 7.648 L/kg
  half-life: 3.21 h
Hepatocyte [1]
  Hepatic Extraction Ratio (E): 0.32
  Predicted hepatic CL: 17.41 mL/min/kg
[2]; Rat hepatocytes
  hepatocyte CLint: 5.43 µL/min/1e6 cells
[2]; Rat hepatocytes, read-out: In vitro T1/2
  half-life: 4.26 h
[2]; rat, hepatocytes, read-out: Scale-up Clint
  CLint scaled: 25.4 mL/min/kg
Plasma PK in rat; IP, 10 mg/kg
  AUC(0-t): 193 ng·h/mL
  Cl_F: 816.02 mL/min/kg
  Vz_F: 225.48 L/kg
  half-life: 3.3 h
Plasma PK in rat; IV, 2.5 mg/kg
  AUC(0-t): 37.5 ng·h/mL
  half-life: 3.93 h
Plasma PK in rat; IV, 2.5 mg/kg, read-out: Cltot (converted)
  clearance: 1070 mL/min/kg
Plasma PK in rat; IV, 2.5 mg/kg, read-out: Vss
  Vd: 0.204 L/kg
Hepatocyte [3]
  Hepatic Extraction Ratio (E): <0.18
  Predicted hepatic CL: <7.97 mL/min/kg
[4]
  hepatocyte CLint: < 2.71 µL/min/1e6 cells
[4]; read-out: In vitro T1/2
  half-life: > 8.53 h
[4]; read-out: Scale-up Clint
  CLint scaled: < 9.75 mL/min/kg
5-HT6
  EC50: 53.2 nM
  Eff: 55%
Hepatocyte [5]
  Hepatic Extraction Ratio (E): <0.38
  Predicted hepatic CL: <11.62 mL/min/kg
[6]; Dog hepatocytes
  hepatocyte CLint: < 2.71 µL/min/1e6 cells
[6]; Dog hepatocytes, read-out: In vitro T1/2
  half-life: > 8.53 h
[6]; dog, hepatocytes, read-out: Scale-up Clint
  CLint scaled: < 18.6 mL/min/kg
TA100; TA100 + S9, 1.0E−04M
  Count (n. of wells): 0 n. of wells
  Significance: Negative
TA100; TA100 + S9, 1.0E−05M
  Count (n. of wells): 8 n. of wells
  Significance: Negative
TA100; TA100 + S9, 5.0E−05M
  Count (n. of wells): 1 n. of wells
  Significance: Negative
TA100; TA100 + S9, 5.0E−06M
  Count (n. of wells): 13 n. of wells
  Significance: Negative
TA100; TA100 − S9, 1.0E−04M
  Count (n. of wells): 0 n. of wells
  Significance: Negative
TA100; TA100 − S9, 1.0E−05M
  Count (n. of wells): 1 n. of wells
  Significance: Negative
TA100; TA100 − S9, 5.0E−05M
  Count (n. of wells): 0 n. of wells
  Significance: Negative
TA100; TA100 − S9, 5.0E−06M
  Count (n. of wells): 2 n. of wells
  Significance: Negative
5-HT5A
  EC50: Not active
5-HT1B
  EC50: 327 nM
  Eff: 74%
